We go through 28 compounds from patent US12227511B2, “Bicyclic compounds as kinase modulators, methods and uses thereof” (Agency for Science, Technology and Research, priority 2018, dated 2025).

The test system of this assay is HCCLM3 cells. In words: GI50 in HCCLM3 cells, cell viability by MTS assay. It counts as cell-based. Conditions: Homo sapiens, 72 hours incubation, triplicates, read-out: HCCLM3 activity range (GI50). As for the experimental part:
To investigate the effects of compounds on hepatocellular carcinoma (HCC) cell viability, HCCLM3 cells (HCC cells with high metastatic potential) were incubated with increasing concentrations of test compounds for 72 hours. Cell viability was evaluated at the end of incubation period by MTS assay. […] All samples were evaluated in triplicates.
As set forth in Table 1 below, GI50 values are defined as follows: GI50≤10 μM (+++); GI50>10 μM and ≤20 μM (++); GI50>20 μM (+).
A general note: Formazan colour is commonly taken as a measure of viable cells.

As a reminder, the GI50 is the concentration at which growth is held to half of that of the control. As to `COc1cc2nccc(Oc3ccc(NC(=O)C4(C(=O)NC56CC(C5)C6)CC4)cc3)c2cc1OC` [Compound 1, N-(bicyclo[1.1.1]pentan-1-yl)-N-(4-(6,7-dimethoxyquinolin-4-yloxy)phenyl)cyclopropane-1,1-dicarboxamide], the GI50 is not above 10 µM.
Regarding `COc1cc2nccc(Oc3ccc(NC(=O)C4(C(=O)NC56CC(c7ccccc7)(C5)C6)CC4)cc3)c2cc1OC` [Compound 2, N-(4-((6,7-dimethoxyquinolin-4-yl)oxy)phenyl)-N-(3-phenylbicyclo[1.1.1]pentan-1-yl)cyclopropane-1,1-dicarboxamide], the concentration for 50% growth inhibition (GI50) was more than 20 µM.
To `COc1cc2nccc(Oc3ccc(NC(=O)C45CC(C(=O)NC67CC(F)(C6)C7)(C4)C5)cc3)c2cc1OC` [Compound 3, N^1-(4-((6,7-dimethoxyquinolin-4-yl)oxy)phenyl)-N3-(3-fluorobicyclo[1.1.1]pentan-1-yl)bicyclo[1.1.1]pentane-1,3-dicarboxamide] belongs more than 20 µM.
To `COc1cc2nccc(Oc3ccc(NC(=O)C4(C(=O)NC56CC(F)(C5)C6)CC4)cc3)c2cc1OC` [Compound 4, N-(4-((6,7-dimethoxyquinolin-4-yl)oxy)phenyl)-N-(3-fluorobicyclo[1.1.1]pentan-1-yl)cyclopropane-1,1-dicarboxamide] belongs not above 10 µM.
For `COc1cc2nccc(Oc3ccc(NC(=O)C4(C(=O)NC56CC(OC(=O)c7ccccc7)(C5)C6)CC4)cc3)c2cc1OC` [Compound 5, 3-(1-((4-((6,7-dimethoxyquinolin-4-yl)oxy)phenyl)carbamoyl)cyclopropane-1-carboxamido)bicyclo[1.1.1]pentan-1-yl benzoate] the value was more than 20 µM; for `COc1cc2nccc(Oc3ccc(NC(=O)C4(C(=O)NC56CC(O)(C5)C6)CC4)cc3)c2cc1OC` [Compound 6, N-(4-((6,7-dimethoxyquinolin-4-yl)oxy)phenyl)-N-(3-hydroxybicyclo[1.1.1]pentan-1-yl)cyclopropane-1,1-dicarboxamide], more than 20 µM; for `COc1cc2nccc(Oc3ccc(NC(=O)C4(C(=O)NC56CC(C(N)=O)(C5)C6)CC4)cc3)c2cc1OC` [Compound 7, N-(3-carbamoylbicyclo[1.1.1]pentan-1-yl)-N-(4-((6,7-dimethoxyquinolin-4-yl)oxy)phenyl)cyclopropane-1,1-dicarboxamide], more than 20 µM.
As for `COc1cc2nccc(Oc3ccc(NC(=O)C4(C(=O)NC56CC(C(=O)N(C)C)(C5)C6)CC4)cc3)c2cc1OC` [Compound 8, N-(4-((6,7-dimethoxyquinolin-4-yl)oxy)phenyl)-N-(3-(dimethylcarbamoyl)bicyclo[1.1.1]pentan-1-yl)cyclopropane-1,1-dicarboxamide], the GI50 is more than 20 µM.
`COc1cc2nccc(Oc3ccc(NC(=O)C4(C(=O)NC56CC(c7cnccn7)(C5)C6)CC4)cc3)c2cc1OC` [Compound 9, N-(4-((6,7-dimethoxyquinolin-4-yl)oxy)phenyl)-N-(3-(pyrazin-2-yl)bicyclo[1.1.1]pentan-1-yl)cyclopropane-1,1-dicarboxamide]: the GI50 was more than 20 µM.
Consider `COc1cc2nccc(Oc3ccc(NC(=O)C4(C(=O)NC56CC(C)(C5)C6)CC4)cc3)c2cc1OC` [Compound 10, N-(4-((6,7-dimethoxyquinolin-4-yl)oxy)phenyl)-N-(3-methylbicyclo[1.1.1]pentan-1-yl)cyclopropane-1,1-dicarboxamide], for which the GI50 was not above 10 µM.
For `COc1cc2nccc(Oc3ccc(NC(=O)C4(C(=O)NC56CC(C(F)(F)F)(C5)C6)CC4)cc3)c2cc1OC` [Compound 11, N-(4-((6,7-dimethoxyquinolin-4-yl)oxy)phenyl)-N-(3-(trifluoromethyl)bicyclo[1.1.1]pentan-1-yl)cyclopropane-1,1-dicarboxamide] the value was not above 10 µM; for `COc1cc2nccc(Oc3ccc(NC(=O)C4(C(=O)NC56CC(N)(C5)C6)CC4)cc3)c2cc1OC` [Compound 12, N-(3-aminobicyclo[1.1.1]pentan-1-yl)-N-(4-((6,7-dimethoxyquinolin-4-yl)oxy)phenyl)cyclopropane-1,1-dicarboxamide], more than 20 µM.
To `COc1cc2nccc(Oc3ccc(NC(=O)C4(C(=O)NC56CC(NC(C)=O)(C5)C6)CC4)cc3)c2cc1OC` [Compound 13, N-(3-acetamidobicyclo[1.1.1]pentan-1-yl)-N-(4-((6,7-dimethoxyquinolin-4-yl)oxy)phenyl)cyclopropane-1,1-dicarboxamide] belongs more than 20 µM; to `COc1cc2nccc(Oc3ccc(NC(=O)C4(C(=O)NC56CC(NC(=O)C7(C(=O)Nc8ccc(Oc9ccnc%10cc(OC)c(OC)cc9%10)cc8)CC7)(C5)C6)CC4)cc3)c2cc1OC` [Compound 14, N,N′-(bicyclo[1.1.1]pentane-1,3-diyl)bis(N-(4-((6,7-dimethoxyquinolin-4-yl)oxy)phenyl)cyclopropane-1,1-dicarboxamide)], more than 20 µM; to `COC(=O)C12CCC(NC(=O)C3(C(=O)Nc4ccc(Oc5ccnc6cc(OC)c(OC)cc56)cc4)CC3)(CC1)CC2` [Compound 15, methyl 4-(1-((4-((6,7-dimethoxyquinolin-4-yl)oxy)phenyl)carbamoyl)cyclopropane-1-carboxamido)bicyclo[2.2.2]octane-1-carboxylate], more than 20 µM.
To `CCOC(=O)[C@@H]1C2CCC(CC2)[C@H]1NC(=O)C1(C(=O)Nc2ccc(Oc3ccnc4cc(OC)c(OC)cc34)cc2)CC1` [Compound 16, ethyl (2R,3R)-3-(1-((4-((6,7-dimethoxyquinolin-4-yl)oxy)phenyl)carbamoyl)cyclopropane-1-carboxamido)bicyclo[2.2.2]octane-2-carboxylate] belongs more than 20 µM.
As to `COc1cc2nccc(Oc3ccc(NC(=O)C4(C(=O)NC56CNCC5C6)CC4)cc3)c2cc1OC` (stereo not shown) [Compound 17, N-(3-azabicyclo[3.1.0]hexan-1-yl)-N-(4-((6,7-dimethoxyquinolin-4-yl)oxy)phenyl)cyclopropane-1,1-dicarboxamide], the GI50 is more than 20 µM.
To `COc1cc2nccc(Oc3ccc(NC(=O)C4(C(=O)NC56CC5CN(C(C)=O)C6)CC4)cc3)c2cc1OC` (stereo not shown) [Compound 18, N-(3-acetyl-3-azabicyclo[3.1.0]hexan-1-yl)-N-(4-((6,7-dimethoxyquinolin-4-yl)oxy)phenyl)cyclopropane-1,1-dicarboxamide] belongs more than 20 µM; to `COc1cc2nccc(Oc3ccc(NC(=O)C4(C(=O)N5[C@@H]6CC[C@H]5C[C@@H](OC)C6)CC4)cc3)c2cc1OC` [Compound 19, N-(4-((6,7-dimethoxyquinolin-4-yl)oxy)phenyl)-1-((1R,3r,5S)-3-methoxy-8-azabicyclo[3.2.1]octane-8-carbonyl)cyclopropane-1-carboxamide], more than 20 µM; to `COc1cc2nccc(Oc3ccc(NC(=O)C4(C(=O)N5C[C@@H]6COC[C@@H](C6)C5)CC4)cc3)c2cc1OC` [Compound 20, 1-((1R,5S)-3-oxa-7-azabicyclo[3.3.1]nonane-7-carbonyl)-N-(4-((6,7-dimethoxyquinolin-4-yl)oxy)phenyl)cyclopropane-1-carboxamide], more than 20 µM.
Take `COc1cc2nccc(Oc3ccc(NC(=O)C4(C(=O)N5[C@@H]6CC[C@H]5C[C@H](C#N)C6)CC4)cc3)c2cc1OC` [Compound 21, EXO-1-(3-cyano-8-azabicyclo[3.2.1]octane-8-carbonyl)-N-(4-((6,7-dimethoxyquinolin-4-yl)oxy)phenyl)cyclopropane-1-carboxamide]: the GI50 is more than 20 µM.
For `COc1cc2nccc(Oc3ccc(NC(=O)C4(C(=O)N5C[C@@H]6[C@H](C5)[C@H]6C(N)=O)CC4)cc3)c2cc1OC` [Compound 22, EXO-3-(1-((4-((6,7-dimethoxyquinolin-4-yl)oxy)phenyl)carbamoyl)cyclopropane-1-carbonyl)-3-azabicyclo[3.1.0]hexane-6-carboxamide] the value was more than 20 µM; for `COc1cc2nccc(Oc3ccc(NC(=O)C4(C(=O)NC5C[C@H]6CC[C@@H](C5)N6C)CC4)cc3)c2cc1OC` (stereo partly drawn) [Compound 23, ENDO-N-(4-((6,7-dimethoxyquinolin-4-yl)oxy)phenyl)-N-((1R,3r,5S)-8-methyl-8-azabicyclo[3.2.1]octan-3-yl)cyclopropane-1,1-dicarboxamide], more than 20 µM.
For `COc1cc2nccc(Oc3ccc(NC(=O)C4(C(=O)NC56CCC(CC5)CC6)CC4)cc3)c2cc1OC` [Compound 24, N-(bicyclo[2.2.2]octan-1-yl)-N-(4-((6,7-dimethoxyquinolin-4-yl)oxy)phenyl)cyclopropane-1,1-dicarboxamide] the value was 10 to 20 µM; for `COc1cc2nccc(Oc3ccc(NC(=O)C4(C(=O)NC56CCC(CC5)C6)CC4)cc3)c2cc1OC` [Compound 25, N-((1s,4s)-bicyclo[2.2.1]heptan-1-yl)-N-(4-((6,7-dimethoxyquinolin-4-yl)oxy)phenyl)cyclopropane-1,1-dicarboxamide], not above 10 µM.
On to `COc1cc2nccc(Oc3ccc(NC(=O)C4(C(=O)N5C6CCCC5CCC6)CC4)cc3)c2cc1OC` [Compound 26, 1-((1s,5s)-9-azabicyclo[3.3.1]nonane-9-carbonyl)-N-(4-((6,7-dimethoxyquinolin-4-yl)oxy)phenyl)cyclopropane-1-carboxamide], for which the GI50 is more than 20 µM.
To `COc1cc2nccc(Oc3ccc(NC(=O)C4(C(=O)N5CC6CC6C5)CC4)cc3)c2cc1OC` (stereo not shown) [Compound 27, 1-(3-azabicyclo[3.1.0]hexane-3-carbonyl)-N-(4-((6,7-dimethoxyquinolin-4-yl)oxy)phenyl)cyclopropane-1-carboxamide] belongs more than 20 µM.
For `COc1cc2nccc(Oc3ccc(NC(=O)C4(C(=O)NC56CC7CC(CC(C7)C5)C6)CC4)cc3)c2cc1OC` [Compound 28, N-((3R,5R)-adamantan-1-yl)-N-(4-((6,7-dimethoxyquinolin-4-yl)oxy)phenyl)cyclopropane-1,1-dicarboxamide] the value was 10 to 20 µM.
